Test results taken from US9522888B2, “Substituted bicyclic compounds” (BRISTOL-MYERS SQUIBB COMPANY, priority 2014, dated 2016).

Experiments:
[1] = test system: circulating lymphocytes; assay: Blood Lymphocyte Reduction (BLR) assay in rat; type: in vivo, Lewis rats; settings: oral; for Percent reduction vs. control at 24 hr post-dose: blood lymphocytes; for lymphocyte reduction: rodent BLR assay, 24 hours post-dose, versus vehicle treated group
Protocol: Blood Lymphocyte Reduction (BLR) Assay in Rodent:
Lewis rats or BALB/c mice were dosed orally with vehicle alone (polyethylene glycol 300, “PEG300”) or with test compounds. Compounds were dosed as a solution or suspension in the vehicle, adjusted to reflect the free amount of test article in the event that salt forms are utilized. Blood was drawn at 24 hr and blood lymphocyte counts were determined on an ADVIA 120 Hematology Analyzer (Siemens Healthcare Diagnostics). The results were measured as a reduction in the percentage of circulating lymphocytes as compared to the vehicle treated group at the time of measurement. The results represent the average results of all animals within each treatment group (n=2-4).

[2] = biological target: S1P3 (membranes prepared from EDG3-Gal5-bla HEK293T cells) (Homo sapiens (Human), UniProt Q99500); assay: Receptor [35S] GTPγS binding assay (S1P3 GTPγS); type: biochemical; settings: phosphate examples; read-out: S1P3 GTPγS
Sequence of S1P3 (membranes prepared from EDG3-Gal5-bla HEK293T cells) (Q99500 whole entry): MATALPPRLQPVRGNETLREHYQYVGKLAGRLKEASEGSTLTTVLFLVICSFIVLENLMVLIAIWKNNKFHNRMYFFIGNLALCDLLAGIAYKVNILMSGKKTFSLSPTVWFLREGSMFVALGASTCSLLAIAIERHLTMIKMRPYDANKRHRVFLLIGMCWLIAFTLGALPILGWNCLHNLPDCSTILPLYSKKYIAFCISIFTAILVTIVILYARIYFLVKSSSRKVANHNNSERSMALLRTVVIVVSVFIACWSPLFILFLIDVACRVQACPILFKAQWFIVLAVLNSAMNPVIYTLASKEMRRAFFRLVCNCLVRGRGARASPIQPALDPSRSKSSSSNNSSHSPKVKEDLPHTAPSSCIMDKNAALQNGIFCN
How it was run: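 Membranes (3 μg protein/well) from S1P1/CHO cells or EDG3-Gal5-bla HEK293T cells (S1P3) were incubated 45 min at room temperature with 0.2 nM final [35S]GTPγS in HEPES pH 7.5 buffer with 10 μM GDP, MgCl2 and saponin. Bound label counted after filtration; EC50 from 11-point, 3-fold dilutions.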

[3] = biological target: human S1P1 (Homo sapiens (Human), UniProt P21453); assay: S1P1 binding assay (33P-S1P radioligand competition, CHO cell membranes); settings: phosphate examples; read-out: S1P1 Binding
Sequence of human S1P1 (P21453 whole entry): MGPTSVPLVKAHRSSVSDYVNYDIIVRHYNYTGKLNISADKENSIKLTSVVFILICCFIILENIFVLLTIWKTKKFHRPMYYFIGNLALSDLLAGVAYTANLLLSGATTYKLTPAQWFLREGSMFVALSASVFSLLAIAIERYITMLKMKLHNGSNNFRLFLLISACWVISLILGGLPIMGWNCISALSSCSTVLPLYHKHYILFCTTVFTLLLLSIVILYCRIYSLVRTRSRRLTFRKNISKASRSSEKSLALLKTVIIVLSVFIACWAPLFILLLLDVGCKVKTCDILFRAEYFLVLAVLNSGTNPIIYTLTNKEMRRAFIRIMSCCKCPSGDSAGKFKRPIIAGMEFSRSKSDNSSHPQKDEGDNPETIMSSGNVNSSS
How it was run: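 Radioligand is 33P-S1P, competing for membranes from human S1P1-expressing CHO cells. Membranes resuspended in 50 mM HEPES pH 7.5, 100 mM NaCl, 1 mM MgCl2, 2 mM EDTA.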

[4] = biological target: S1P1 (membranes prepared from S1P1/CHO cells) (Homo sapiens (Human), UniProt P21453); assay: Receptor [35S] GTPγS binding assay (S1P1 GTPγS); type: biochemical; settings: phosphate examples; read-out: S1P1 GTPγS
Sequence of S1P1 (membranes prepared from S1P1/CHO cells) (P21453 whole entry): as above
How it was run: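 Agonist-stimulated [35S]GTPγS binding (0.2 nM final) to S1P1/CHO membranes, 3 μg protein/well, measured after 45 min at room temperature. Buffer contained 10 μM GDP, saponin and fatty-acid-free BSA at pH 7.5. Compounds tested as 11-point 3-fold series; bound label captured on filters, scintillation-counted, EC50 reported.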

[5] = biological target: hS1P1/CHO cells (Homo sapiens (Human), UniProt P21453); assay: hS1P1 ERK phosphorylation (S1P1 pERK); type: cell-based; settings: phosphate examples
Sequence of hS1P1/CHO cells (P21453 whole entry): as above
How it was run: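 Agonism read as ERK phosphorylation (SureFire pERK) in hS1P1/CHO lysates, normalised to the maximal effect of 10 μM S1P. Cells were held 2 h in serum-free medium, then treated with compound for 7 min at 37° C. in HBSS/20 mM HEPES.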

EC50 [2] | IC50 [3] | EC50 [4] | EC50 [5] | SMILES | Percent reduction vs. control at 24 hr post-dose ([1]; 0.1 mg/kg) | Percent reduction vs. control at 24 hr post-dose ([1]; 0.3 mg/kg) | lymphocyte reduction ([1]; 0.1 mg/kg) | Percent reduction vs. control at 24 hr post-dose ([1]; 0.05 mg/kg)
– | – | – | – | COCCCCCC1CCc2cc([C@@H]3CC[C@](N)(CO)C3)ccc2C1 (single isomer, unassigned) [Example 674] | 30% | 73% | 30% | –
– | – | – | – | COCCCCCC1CCc2cc([C@@H]3CC[C@](N)(CO)C3)ccc2C1 (single isomer, unassigned) [Example 675] | 63% | – | 63% | –
– | – | – | – | COCCCCC[C@@H]1CCc2cc([C@H]3CC[C@](N)(CO)C3)ccc2C1 [Example 673, ((1R,3S)-1-amino-3-((R)-6-(5-methoxypentyl)-5,6,7,8-tetrahydronaphthalen-2-yl)cyclopentyl)methanol] | 62% | – | – | –
– | – | – | – | COc1cccc(CC[C@H]2CCc3cc([C@H]4CC[C@](N)(CO)C4)ccc3C2)c1 [Example 676, ((1R,3S)-1-amino-3-((S)-6-(3-methoxyphenethyl)-5,6,7,8-tetrahydronaphthalen-2-yl)cyclopentyl) methanol] | 63% | – | – | –
– | – | – | – | COc1cccc(CC[C@@H]2CCc3cc([C@H]4CC[C@](N)(CO)C4)ccc3C2)c1 [Example 677, ((1R,3S)-1-amino-3-((R)-6-(3-methoxyphenethyl)-5,6,7,8-tetrahydronaphthalen-2-yl)cyclopentyl)methanol] | – | – | – | 49%
> 625 nM | 10 to 100 nM | 10 to 100 nM | 10 to 100 nM | CCCCC=C[C@H]1CCc2cc([C@H]3CC[C@](N)(COP(=O)(O)O)C3)ccc2C1 [compound 648] | – | – | – | –
> 625 nM | 10 to 100 nM | 100 to 1000 nM | 10 to 100 nM | CC/C=C/CC[C@@H]1CCc2cc([C@H]3CC[C@](N)(COP(=O)(O)O)C3)ccc2C1 [compound 650] | – | – | – | –
> 625 nM | 10 to 100 nM | 10 to 100 nM | 10 to 100 nM | CC/C=C\CC[C@@H]1CCc2cc([C@H]3CC[C@](N)(COP(=O)(O)O)C3)ccc2C1 [compound 651] | – | – | – | –
> 625 nM | 10 to 100 nM | 10 to 100 nM | 10 to 100 nM | C/C=C\CCC[C@@H]1CCc2cc([C@H]3CC[C@](N)(COP(=O)(O)O)C3)ccc2C1 [compound 656] | – | – | – | –
> 625 nM | 10 to 100 nM | < 10 nM | 10 to 100 nM | C/C=C\CCC[C@H]1CCc2cc([C@H]3CC[C@](N)(COP(=O)(O)O)C3)ccc2C1 [compound 657] | – | – | – | –
> 625 nM | < 10 nM | 10 to 100 nM | < 10 nM | CC/C=C/CC[C@H]1CCc2cc([C@H]3CC[C@](N)(COP(=O)(O)O)C3)ccc2C1 [compound 658] | – | – | – | –
> 625 nM | < 10 nM | < 10 nM | 10 to 100 nM | C/C=C/CCCC[C@H]1CCc2cc([C@H]3CC[C@](N)(COP(=O)(O)O)C3)ccc2C1 [compound 659] | – | – | – | –
> 625 nM | < 10 nM | < 10 nM | 10 to 100 nM | C/C=C\CCCC[C@H]1CCc2cc([C@H]3CC[C@](N)(COP(=O)(O)O)C3)ccc2C1 [compound 660] | – | – | – | –
> 625 nM | < 10 nM | < 10 nM | < 10 nM | C/C=C\CCCC[C@@H]1CCc2cc([C@H]3CC[C@](N)(COP(=O)(O)O)C3)ccc2C1 [compound 661] | – | – | – | –
> 625 nM | < 10 nM | < 10 nM | < 10 nM | C/C(=N\OCc1ccccc1)[C@@H]1CCc2cc([C@H]3CC[C@](N)(COP(=O)(O)O)C3)ccc2C1 [compound 664] | – | – | – | –
> 625 nM | < 10 nM | < 10 nM | 10 to 100 nM | CCCCO/N=C(\C)[C@@H]1CCc2cc([C@H]3CC[C@](N)(COP(=O)(O)O)C3)ccc2C1 [compound 665] | – | – | – | –
> 625 nM | < 10 nM | < 10 nM | 10 to 100 nM | CCCC[S+]([O-])C[C@@H]1CCc2cc([C@H]3CC[C@](N)(COP(=O)(O)O)C3)ccc2C1 (some centres unmarked) [compound 668] | – | – | – | –
